Laboratory results taken from patent publication US20240294885A1, “ENGINEERED ENZYMES AND METHODS OF MAKING AND USING” (priority 2021, published 2024).

How the values were obtained:
Format in all cases: biochemical
[1] = biological target: Mycobacterium avium CAR (SEQ ID NO:153) Variant 1 of Table 14 (K275D N276S F278S A283C I300G N335D), Variant 4 S274P (Mycobacterium avium, UniProt A0ACD7BNV2, A283C/F278S/G391S/I300G/K275D/N276S/N335D/S274P); assay: CAR lysate assay with 30 mM 6ACA ± 0.25M HMD (Table 14), Variant 4; conditions: Variant 4, Table 14, 6ACA
[2] = biological target: Mycobacterium avium CAR (SEQ ID NO:153) Variant 1 of Table 14 (K275D N276S F278S A283C I300G N335D), Variant 37 A282P M296A M389S N401T F425N (Mycobacterium avium, UniProt A0ACD7BNV2, A282P/A283C/F278S/F425N/G391S/I300G/K275D/M296A/M389S/N276S/N335D/N401T); assay: CAR lysate assay with 30 mM 6ACA ± 0.25M HMD (Table 14), Variant 37; conditions: Variant 37, Table 14, 6ACA
[3] = biological target: Mycobacterium avium CAR (SEQ ID NO:153) Variant 1 of Table 14 (K275D N276S F278S A283C I300G N335D), Variant 35 A282P M296A M389S F425N (Mycobacterium avium, UniProt A0ACD7BNV2, A282P/A283C/F278S/F425N/G391S/I300G/K275D/M296A/M389S/N276S/N335D); assay: CAR lysate assay with 30 mM 6ACA ± 0.25M HMD (Table 14), Variant 35; conditions: Variant 35, Table 14, 6ACA
[4] = biological target: T1, Mycobacterium avium CAR (SEQ ID NO:153) Variant 1 of Table 14, K275D N276S F278S A283C I300G N335D (Mycobacterium avium, UniProt A0ACD7BNV2, A283C/F278S/G391S/I300G/K275D/N276S/N335D); assay: CAR lysate assay with 30 mM 6ACA ± 0.25M HMD (Table 14), CAR Variant 1; conditions: CAR Variant 1, Table 14, 6ACA
[5] = biological target: T1, Mycobacterium avium CAR (SEQ ID NO:153) Variant 1 of Table 14, K275D N276S F278S A283C I300G N335D; assay: CAR lysate assay with 10 mM 6ACA ± 125 mM HMD or 0.25M HMD (Table 15), CAR Variant 1
[6] = biological target: Mycobacterium avium CAR (SEQ ID NO:153) Variant 1 of Table 14 (K275D N276S F278S A283C I300G N335D), Variant 33 A282P M296A F425L (Mycobacterium avium, UniProt A0ACD7BNV2, A282P/A283C/F278S/F425L/G391S/I300G/K275D/M296A/N276S/N335D); assay: CAR lysate assay with 30 mM 6ACA ± 0.25M HMD (Table 14), Variant 33; conditions: Variant 33, Table 14, 6ACA
[7] = biological target: Mycobacterium avium CAR (SEQ ID NO:153) Variant 1 of Table 14 (K275D N276S F278S A283C I300G N335D), Variant 38 A282P M296A N401T F425L (Mycobacterium avium, UniProt A0ACD7BNV2, A282P/A283C/F278S/F425L/G391S/I300G/K275D/M296A/N276S/N335D/N401T); assay: CAR lysate assay with 30 mM 6ACA ± 0.25M HMD (Table 14), Variant 38; conditions: Variant 38, Table 14, 6ACA
[8] = biological target: Mycobacterium avium CAR (SEQ ID NO:153) Variant 1 of Table 14 (K275D N276S F278S A283C I300G N335D), Variant 12 M296H (Mycobacterium avium, UniProt A0ACD7BNV2, A283C/F278S/G391S/I300G/K275D/M296H/N276S/N335D); assay: CAR lysate assay with 30 mM 6ACA ± 0.25M HMD (Table 14), Variant 12; conditions: Variant 12, Table 14, 6ACA
[9] = biological target: Mycobacterium avium CAR (SEQ ID NO:153) Variant 1 of Table 14 (K275D N276S F278S A283C I300G N335D), Variant 36 A282P M296A M389S N401T F425L (Mycobacterium avium, UniProt A0ACD7BNV2, A282P/A283C/F278S/F425L/G391S/I300G/K275D/M296A/M389S/N276S/N335D/N401T); assay: CAR lysate assay with 30 mM 6ACA ± 0.25M HMD (Table 14), Variant 36; conditions: Variant 36, Table 14, 6ACA
[10] = biological target: Mycobacterium avium CAR (SEQ ID NO:153) Variant 1 of Table 14 (K275D N276S F278S A283C I300G N335D), Variant 34 A282P M296A F425T (Mycobacterium avium, UniProt A0ACD7BNV2, A282P/A283C/F278S/F425T/G391S/I300G/K275D/M296A/N276S/N335D); assay: CAR lysate assay with 30 mM 6ACA ± 0.25M HMD (Table 14), Variant 34; conditions: Variant 34, Table 14, 6ACA
[11] = system: carboxylic acid reductase (CAR); conditions: 6ACA as substrate, 30 mM or 10 mM; HMD 125 mM or 0.25M

Row | Compound | Vmax [1] | Vmax [2] | Vmax [3] | Vmax [4] | Vmax ([5]; CAR Variant 1, Table 15, 6ACA) | Vmax [6] | Vmax [7] | Vmax [8] | Vmax [9] | Vmax [10] | % inhibition @ 0.25M HMD & 10 mM 6ACA ([5]; CAR Variant 1, 0.25M HMD, 10 mM 6ACA) | inhibition of CAR in the presence of HMD [11]
1 | NCCCCCC(=O)O [6ACA] | +++ (>10.0) | ++ (5.0-10.0) | ++ (5.0-10.0) | +++ (>10.0) | +++ (>10.0) | + (<5) | ++ (5.0-10.0) | +++ (>10.0) | ++ (5.0-10.0) | + (<5) | – | –
2 | NCCCCCCN [HMD, hexamethylenediamine, reference compound] | – | – | – | – | – | – | – | – | – | – | ++ (60-90) | inhibited
